Measured values published in patent US12581252B2, “Substituted pyrrolo[3,4-b]pyridines as PI3K-α inhibitors” (Relay Therapeutics, Inc., priority 2020, dated 2026).

Target: H1047R PIK3CA enzyme (Homo sapiens, UniProt P42336, H1047R)
Experiment: ADP-Glo Biochemical PIK3CA Kinase Assay
Protocol: Compounds to be assayed were plated in 16 doses of 1:2 serial dilutions (20 nL volume each well) on a 1536-well plate, and the plate warmed to room temperature. […] To the well was added 1 μL of 200 μM ATP and 20 μM of diC8-PIP2 in Substrate Assay Buffer (50 mM HEPES pH7.4, 50 mM NaCl, 5 mM DTT and 0.03% CHAPS) to start the reaction, and the plate was shaken for 10 seconds, then spun briefly at 1500 rpm, and then incubated for 60 minutes at room temperature. The reaction was stopped by adding 2 μL of ADP-Glo reagent (Promega), and spinning briefly at 1500 rpm, and then incubating for 40 minutes. ADP-Glo Detection reagent (Promega) was added and the plate spun briefly at 1500 rpm, then incubated for 30 minutes.

Sequence of H1047R PIK3CA enzyme (P42336 whole entry H1047R): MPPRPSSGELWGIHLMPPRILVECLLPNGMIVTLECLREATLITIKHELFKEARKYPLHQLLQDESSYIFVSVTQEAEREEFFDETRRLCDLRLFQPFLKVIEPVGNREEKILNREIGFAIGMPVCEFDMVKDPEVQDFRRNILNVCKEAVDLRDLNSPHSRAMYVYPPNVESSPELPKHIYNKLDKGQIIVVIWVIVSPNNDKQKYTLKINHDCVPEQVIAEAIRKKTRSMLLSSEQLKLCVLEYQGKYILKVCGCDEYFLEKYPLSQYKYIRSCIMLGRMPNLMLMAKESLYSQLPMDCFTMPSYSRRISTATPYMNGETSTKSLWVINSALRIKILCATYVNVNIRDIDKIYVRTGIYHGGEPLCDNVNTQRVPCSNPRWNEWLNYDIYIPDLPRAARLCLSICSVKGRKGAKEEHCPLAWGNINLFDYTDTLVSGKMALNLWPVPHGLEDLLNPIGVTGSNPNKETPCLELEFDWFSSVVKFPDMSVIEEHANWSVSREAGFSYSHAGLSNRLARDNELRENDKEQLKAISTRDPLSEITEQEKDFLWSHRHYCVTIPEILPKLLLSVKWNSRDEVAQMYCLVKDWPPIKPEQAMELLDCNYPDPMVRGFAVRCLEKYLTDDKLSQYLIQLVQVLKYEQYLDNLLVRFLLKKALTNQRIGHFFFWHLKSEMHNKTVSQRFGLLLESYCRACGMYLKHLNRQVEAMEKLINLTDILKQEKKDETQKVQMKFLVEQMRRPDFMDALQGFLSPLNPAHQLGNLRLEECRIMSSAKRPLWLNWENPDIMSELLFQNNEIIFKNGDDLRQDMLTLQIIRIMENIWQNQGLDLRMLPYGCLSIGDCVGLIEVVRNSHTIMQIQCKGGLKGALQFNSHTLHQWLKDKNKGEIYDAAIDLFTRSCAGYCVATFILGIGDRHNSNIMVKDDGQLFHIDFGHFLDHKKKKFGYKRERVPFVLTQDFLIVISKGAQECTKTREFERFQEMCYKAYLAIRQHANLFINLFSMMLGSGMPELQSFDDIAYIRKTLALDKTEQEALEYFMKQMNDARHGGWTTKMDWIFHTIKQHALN
Sequence of H1047R PIK3CA enzyme (P27986 whole entry partner): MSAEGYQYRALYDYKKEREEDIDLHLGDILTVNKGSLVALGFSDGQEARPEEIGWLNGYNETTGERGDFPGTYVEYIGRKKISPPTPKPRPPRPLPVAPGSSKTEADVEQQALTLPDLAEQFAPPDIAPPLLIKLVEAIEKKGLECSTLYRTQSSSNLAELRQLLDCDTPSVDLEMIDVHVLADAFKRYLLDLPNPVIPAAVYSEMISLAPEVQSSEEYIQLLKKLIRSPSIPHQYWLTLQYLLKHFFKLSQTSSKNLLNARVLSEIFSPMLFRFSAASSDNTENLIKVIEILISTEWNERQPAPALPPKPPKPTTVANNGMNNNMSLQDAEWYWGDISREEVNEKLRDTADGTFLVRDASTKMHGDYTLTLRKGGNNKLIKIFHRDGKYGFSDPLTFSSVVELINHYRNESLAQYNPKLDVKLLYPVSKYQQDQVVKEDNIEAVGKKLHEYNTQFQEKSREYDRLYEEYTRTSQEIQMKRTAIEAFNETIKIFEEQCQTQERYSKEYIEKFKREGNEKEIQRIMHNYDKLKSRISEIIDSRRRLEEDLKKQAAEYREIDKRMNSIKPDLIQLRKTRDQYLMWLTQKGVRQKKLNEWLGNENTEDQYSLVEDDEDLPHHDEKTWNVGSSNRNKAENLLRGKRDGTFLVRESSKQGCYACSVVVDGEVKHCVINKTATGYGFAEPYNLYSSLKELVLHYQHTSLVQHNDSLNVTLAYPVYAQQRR

Row | Compound | IC50 [µM]
1 | CNC(=O)c1cc(NC(=O)c2csc3ccccc23)c2c(c1)C(=O)N[C@@H]2c1ccccc1C [Compound I-75, (R)-7-(Benzo[b]thiophene-3-carboxamido)-N-methyl-3-oxo-1-(o-tolyl)isoindoline-5-carboxamide] | 1 to 10
2 | COc1c(Cl)cc(F)cc1C(=O)Nc1cc(Br)cc2c1C(c1cc(F)ccc1Cl)NC2=O (stereo not shown) [Compound I-834] | 1 to 10
3 | C/S(Cc1cc(NC(=O)c2cc(F)cc(C(F)(F)F)c2)c2c(c1)C(=O)NC2c1cc(F)ccc1Cl)=N\C#N (stereo not shown) [Compound I-1494] | ≤ 0.1
4 | CC1(O)CN(c2cc(NC(=O)c3cc(F)cc(C(F)(F)F)c3)c3c(n2)C(=O)NC3c2cc(F)ccc2Cl)C1 (stereo not shown) [Compound I-322] | 0.1 to 0.5
5 | O=C(Nc1cccc2c1C(c1cc(F)c(F)cc1C(F)F)NC2=O)c1cc(F)cc(C(F)(F)F)c1 (stereo not shown) [Compound I-330] | ≤ 0.1
6 | CC(=O)N1CCC[C@H]1COc1cc(NC(=O)c2cc(F)cc(C(F)(F)F)c2)c2c(c1)C(=O)NC2c1cc(F)ccc1Cl (single isomer, unassigned) [Compound I-1466] | ≤ 0.1
7 | O=C1C[C@@H](c2cc(NC(=O)c3cc(F)cc(C(F)(F)F)c3)c3c(c2)C(=O)N[C@@H]3c2cc(F)ccc2Cl)CN1 (single isomer, unassigned) [Compound I-1712] | 1 to 10
8 | O=C(Nc1cc(N2CC(F)(F)C2)nc2c1[C@H](c1cc(F)ccc1Cl)NC2=O)c1cc(F)cc(C(F)(F)F)c1 [Compound I-366] | ≤ 0.1
9 | O=C(Nc1cc(Br)cc2c1C(c1cc(F)ccc1Cl)NC2=O)c1cnn(-c2ccccc2)c1 (stereo not shown) [Compound I-561] | 10 to 100
10 | CC(=O)N1CCCCC1C(=O)Nc1cc(-c2ccc3ncnn3c2)cc2c1C(c1cc(F)ccc1Cl)NC2=O (mixture of isomers) [Compound I-1804] | 10 to 100
11 | N#CCc1cc(NC(=O)N2C[C@](O)(C(F)(F)F)c3cc(F)ccc32)c2c(c1)C(=O)N[C@H]2c1cc(F)ccc1Cl (single isomer, unassigned) [Compound I-2625] | 1 to 10
12 | N#C[C@H]1C[C@H](c2cc(NC(=O)c3cc(F)cc(C(F)(F)F)c3)c3c(c2)C(=O)N[C@@H]3c2cc(F)ccc2Cl)C1 (single isomer, unassigned) [Compound I-1325] | 0.1 to 0.5
13 | Cc1ccccc1C1NC(=O)c2cccc(NC(=O)c3cc(F)cc(C4COC4)c3)c21 (stereo not shown) [Compound I-657] | 1 to 10
14 | O=C1NC(c2cc(F)ccc2Cl)c2c(NC(=O)N3CC4(CCC4)c4ccccc43)cc(Br)cc21 (stereo not shown) [Compound I-1383] | 0.1 to 0.5
15 | NCCc1cc(NC(=O)N2C[C@](O)(C(F)(F)F)c3cc(F)ccc32)c2c(c1)C(=O)N[C@H]2c1cc(F)ccc1Cl (single isomer, unassigned) [Compound I-2582] | 0.1 to 0.5
16 | Cc1ccccc1C1NC(=O)c2cccc(NC(=O)N3CC(=O)Nc4ccccc43)c21 (stereo not shown) [Compound I-44] | 10 to 100
17 | CN1CCN(C(=O)Nc2cc(Br)cc3c2[C@H](c2cc(F)ccc2Cl)NC3=O)CC1 (single isomer, unassigned) [Compound I-2244] | 10 to 100

Row | Compound | IC50 [µM]
18 | N#Cc1cnn2ccc(-c3cc(NC(=O)c4cc(F)cc(C(F)(F)F)c4)c4c(c3)C(=O)N[C@@H]4c3cc(F)ccc3Cl)cc12 [Compound I-1798] | 1 to 10
19 | O=C1NC(c2cc(F)ccc2Cl)c2c(NC(=O)C3(O)CCCC(C(F)(F)F)C3)cccc21 (mixture of isomers) [Compound I-2088] | 10 to 100
20 | O=C1NC(c2cc(F)ccc2Cl)c2c(NC(=O)C3CC(C(F)(F)F)CCN3)cc(Br)cc21 (stereo not shown) [Compound I-1689] | 10 to 100
21 | O=C(Nc1cc(OC2CS(=O)(=O)C2)cc2c1C(c1cc(F)ccc1Cl)NC2=O)c1cc(F)cc(C(F)(F)F)c1 (stereo not shown) [Compound I-1149] | 1 to 10
22 | CC(C)(C)C1CCCN1C(=O)Nc1cccc2c1C(c1cc(F)ccc1Cl)NC2=O (single isomer, unassigned) [Compound I-2433] | 1 to 10
23 | O=C(Nc1cc(Br)cc2c1C(c1cc(F)ccc1Cl)NC2=O)c1cc(F)cc(CF)c1 (stereo not shown) [Compound I-1119] | 0.5 to 1
24 | O=C(Nc1cc(-c2cc(F)n3ncnc3c2)cc2c1[C@@H](c1cc(F)ccc1Cl)NC2=O)c1cc(F)cc(C(F)(F)F)c1 [Compound I-1926] | 1 to 10
25 | O=C1N[C@H](c2cc(F)ccc2Cl)c2c(NC(=O)N3C[C@H](O)c4cc(F)c(F)cc43)cccc21 (single isomer, unassigned) [Compound I-2294] | 10 to 100
26 | O=C1NC(c2cc(F)ccc2Cl)c2c1cccc2-n1[nH]c(=O)c2ccccc21 (stereo not shown) [Compound I-1714] | 10 to 100
27 | CC(C)(O)Cc1cc(NC(=O)c2cc(F)cc(C(F)(F)F)c2)c2c(c1)C(=O)N[C@H]2c1cc(F)ccc1Cl [Compound I-621] | ≤ 0.1
28 | O=C(Nc1cc(-c2ccncc2F)nc2c1C(c1cc(F)ccc1Cl)NC2=O)c1cc(F)cc(C(F)(F)F)c1 (stereo not shown) [Compound I-548] | ≤ 0.1
29 | O=C(Nc1cc(-c2cn3ccncc3n2)cc2c1C(c1cc(F)ccc1Cl)NC2=O)c1cc(F)cc(C(F)(F)F)c1 (stereo not shown) [Compound I-1300] | ≤ 0.1
30 | O=C(CC1CCC(O)CC1)Nc1cc(-c2ccc3ncnn3c2)cc2c1C(c1cc(F)ccc1Cl)NC2=O (stereo not shown) [Compound I-1913] | 10 to 100
31 | O=C(Nc1cc(-c2cn(C(F)F)cn2)cc2c1[C@@H](c1cc(F)ccc1Cl)NC2=O)c1cc(F)cc(C(F)(F)F)c1 [Compound I-1918] | 1 to 10
32 | O=C(Nc1cc(-c2ccn[nH]2)cc2c1[C@@H](c1cc(F)ccc1Cl)NC2=O)c1cc(F)cc(C(F)(F)F)c1 [Compound I-866] | 1 to 10
33 | O=C(Nc1cc(-c2ccc(C(F)F)nc2)cc2c1C(c1cc(F)ccc1Cl)NC2=O)c1cc(F)cc(C(F)(F)F)c1 (stereo not shown) [Compound I-1932] | 0.1 to 0.5

Now from value to compound:

Row | IC50 [µM] | Compound
34 | 10 to 100 | O=C1NC(c2cc(F)ccc2Cl)c2c(NC(=O)N3CCSC(C(F)(F)F)C3)cccc21 (stereo not shown) [Compound I-2340]
35 | 10 to 100 | Cc1ccccc1[C@H]1NC(=O)c2nccc(NC(=O)N3CCc4ccc(F)cc43)c21 [Compound I-247]
36 | 1 to 10 | Cc1ccccc1C1NC(=O)c2cccc(NC(=O)c3ncn4ccc(Cl)cc34)c21 (stereo not shown) [Compound I-258, 7-chloro-N-[3-(2-methylphenyl)-1-oxo-2,3-dihydro-1H-isoindol-4-yl]imidazo[1,5-a]pyridine-1-carboxamide]
37 | 0.1 to 0.5 | COc1cnccc1-c1cc(NC(=O)c2cc(F)cc(Cl)c2)c2c(n1)C(=O)NC2c1cc(F)ccc1Cl (stereo not shown) [Compound I-505]
38 | 10 to 100 | O=C1NC(c2cc(F)ccc2Cl)c2c1cc(-c1ccc3ncnn3c1)cc2N1CCNCC1 (stereo not shown) [Compound I-1908]
39 | ≤ 0.1 | Cc1ncc(-c2cc(NC(=O)c3cc(F)cc(Cl)c3)c3c(c2)C(=O)N[C@H]3c2cc(F)ccc2Cl)cn1 [Compound I-896]
40 | 0.1 to 0.5 | NCCc1cc(NC(=O)N2C[C@@H](O)c3cc(F)ccc32)c2c(c1)C(=O)N[C@@H]2c1cc(F)ccc1Cl (single isomer, unassigned) [Compound I-2444]
41 | 10 to 100 | Cc1ccc(C(=O)Nc2cc(-c3ccc4ncnn4c3)cc3c2[C@@H](c2cc(F)ccc2Cl)NC3=O)cc1C(F)(F)F (stereo in doubt) [Compound I-1168]
42 | 1 to 10 | O=C(Nc1cc(-c2ccc3nnnn3c2)cc2c1[C@@H](c1cc(F)ccc1Cl)NC2=O)c1cc(F)cc(C(F)(F)F)c1 [Compound I-1452]
43 | 0.5 to 1 | N#Cc1cnc2c(F)cc(-c3cc(NC(=O)c4cc(F)cc(C(F)(F)F)c4)c4c(c3)C(=O)N[C@@H]4c3cc(F)ccc3Cl)cn12 [Compound I-1855]
44 | 0.1 to 0.5 | Cc1ccccc1C1NC(=O)c2c(C#N)ccc(NC(=O)c3cc(F)cc(C(F)(F)F)c3)c21 (stereo not shown) [Compound I-313]
45 | 0.1 to 0.5 | O=C(Nc1cc(C(F)(F)F)ccc1Cl)Nc1cc(Br)cc2c1C(c1cc(F)ccc1Cl)NC2=O (stereo not shown) [Compound I-1176]
46 | 1 to 10 | O=C(Nc1ccnc2c1C(c1ccccc1Cl)NC2=O)c1cc(F)cc(OC(F)(F)F)c1 (stereo not shown) [Compound I-234]
47 | 0.1 to 0.5 | O=C(Nc1cc(Cc2ccc3c(c2)CNC3=O)cc2c1[C@@H](c1cc(F)ccc1Cl)NC2=O)c1cc(F)cc(C(F)(F)F)c1 (stereo in doubt) [Compound I-1613]
48 | ≤ 0.1 | O=C(Nc1cc(-c2ccn3nc(C4CC4)nc3c2)cc2c1C(c1cc(F)ccc1Cl)NC2=O)c1cc(F)cc(C(F)(F)F)c1 (stereo not shown) [Compound I-1651]
49 | ≤ 0.1 | N#CC1CN(c2cc(NC(=O)c3cc(F)cc(C(F)(F)F)c3)c3c(c2)C(=O)NC3c2cc(F)ccc2Cl)C1 (stereo not shown) [Compound I-723]
50 | 10 to 100 | O=C(Nc1cc(Br)cc2c1C(c1cc(F)ccc1Cl)NC2=O)c1ccccc1 (stereo not shown) [Compound I-470]
51 | ≤ 0.1 | COc1cnc2ccc(-c3cc(NC(=O)c4cc(F)cc(C(F)(F)F)c4)c4c(c3)C(=O)NC4c3cc(F)ccc3Cl)cc2c1 (stereo not shown) [Compound I-1602]
52 | 0.5 to 1 | CC(=O)c1cc(NC(=O)c2nsc3ccccc23)c2c(c1)C(=O)NC2c1cc(F)ccc1Cl (stereo not shown) [Compound I-135]
53 | ≤ 0.1 | CC(=O)N1CCC[C@@H]1COc1cc(NC(=O)c2cc(F)cc(C(F)(F)F)c2)c2c(c1)C(=O)NC2c1cc(F)ccc1Cl (single isomer, unassigned) [Compound I-1467]
54 | 10 to 100 | C[C@H](O)c1cc(-c2ccc3ncnn3c2)cc2c1[C@H](c1cc(F)ccc1Cl)NC2=O (single isomer, unassigned) [Compound I-2229]
55 | ≤ 0.1 | O=C1N[C@@H](c2cc(F)ccc2Cl)c2c(NC(=O)c3nsc4ccccc34)cc(-c3ccc4ncnn4c3)cc21 (stereo in doubt) [Compound I-1829]
56 | 10 to 100 | O=C(CCC(F)(F)F)Nc1cccc2c1[C@H](c1cc(F)ccc1Cl)NC2=O [Compound I-2120]
57 | 10 to 100 | O=C(CCC(F)(F)F)Nc1cccc2c1[C@@H](c1cc(F)ccc1Cl)NC2=O [Compound I-2119]
58 | 10 to 100 | Cc1ccccc1C1NC(=O)c2cccc(NC(=O)c3csc4cncnc34)c21 (stereo not shown) [Compound I-63]
